Experimental data reported in the supplement of paper PMC8617591.

Columns and labels:
[1] = system: Mycobacterium tuberculosis Erdman (autoluminescent); test: total FIC90 (Loewe) at 90% inhibition, three-drug combination (log2); higher = more antagonistic
Experimental: (§1)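 DiaMOND equipotent three-drug combination dose responses (10 doses, 1.5- or 2-fold spacing, centred on IC90) against autoluminescent M. tuberculosis Erdman in 8 in vitro models. Read-out is OD600, or luminescence for the intracellular and dormancy models, normalised to untreated wells. Hill-fit Einf, AUC25 and GRinf are potency metrics; FIC50 and FIC90 are total Loewe fractional inhibitory concentrations as log2 (negative = synergy).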

[2] = system: Mycobacterium tuberculosis Erdman (autoluminescent); test: Einf, fitted maximum growth inhibition of three-drug combination (fraction); higher = stronger maximal inhibition
Experimental: as §1

[3] = system: Mycobacterium tuberculosis Erdman (autoluminescent); test: AUC25, normalised area under dose response up to IC25 (three-drug combination) (fraction (0-1)); higher = more potent at low dose
Experimental: as §1

[4] = system: Mycobacterium tuberculosis Erdman (autoluminescent); test: total FIC50 (Loewe) at 50% inhibition, three-drug combination (log2); higher = more antagonistic
Experimental: as §1

[5] = system: Mycobacterium tuberculosis Erdman (autoluminescent); test: GRinf, maximum normalised growth rate inhibition (three-drug combination) (unitless (-1 to 1)); higher = less effect (negative = killing)
Experimental: as §1

CC[C@@H](CO)NCCN[C@@H](CC)CO [ethambutol] + CO[C@H]1/C=C/O[C@@]2(C)Oc3c(C)c(O)c4c(O)c(c(/C=N/N5CCN(C6CCCC6)CC5)c(O)c4c3C2=O)NC(=O)/C(C)=C\C=C\[C@H](C)[C@H](O)[C@@H](C)[C@@H](O)[C@@H](C)[C@H](OC(C)=O)[C@@H]1C [rifapentine] + CO[C@H]1/C=C/O[C@@]2(C)Oc3c(C)c(O)c4c(O)c(c(/C=N/N5CCN(C)CC5)c(O)c4c3C2=O)NC(=O)/C(C)=C\C=C\[C@H](C)[C@H](O)[C@@H](C)[C@@H](O)[C@@H](C)[C@H](OC(C)=O)[C@@H]1C [rifampicin]
Conditions | AUC25, [3] | Einf, [2] | GRinf, [5] | total FIC50, [4] | total FIC90, [1]
in vitro model: acidic pH 5.7, time point: constant (~7 days, model-specific) | 0.0788 | 0.863 | -0.0676 | -0.0556 | –
in vitro model: acidic pH 5.7, time point: terminal (~4-5 doublings, model-specific) | 0.0407 | 0.966 | -0.0521 | 0.0683 | -0.673
in vitro model: intracellular J774, time point: constant = terminal | – | 0.964 | -0.359 | – | -2.2

Conditions | AUC25, [3] | Einf, [2] | GRinf, [5] | total FIC50, [4] | total FIC90, [1]
in vitro model: butyrate, time point: constant (~7 days, model-specific) | 0.0871 | 0.924 | -0.00846 | 0.0694 | –
in vitro model: butyrate, time point: terminal (~4-5 doublings, model-specific) | 0.0718 | 0.965 | -0.0114 | 0.0725 | -0.469
in vitro model: cholesterol 0.05 mM, time point: constant (~7 days, model-specific) | 0.12 | 0.674 | -0.208 | -0.109 | –
in vitro model: cholesterol 0.05 mM, time point: terminal (~4-5 doublings, model-specific) | 0.0846 | 0.884 | -0.0993 | -0.106 | –
in vitro model: cholesterol-high 0.2 mM, time point: constant (~7 days, model-specific) | 0.0408 | 0.947 | -0.442 | 0.69 | –
in vitro model: cholesterol-high 0.2 mM, time point: terminal (~4-5 doublings, model-specific) | 0.0471 | 1 | -0.703 | 0.74 | 0.613
in vitro model: dormancy (butyrate + nitrate, low O2), time point: constant (~7 days, model-specific) | 0.066 | 0.854 | 0.363 | -0.0614 | –
in vitro model: dormancy (butyrate + nitrate, low O2), time point: terminal (~4-5 doublings, model-specific) | 0.0493 | 0.981 | -0.104 | 0.286 | -0.687
in vitro model: standard 7H9 glycerol, time point: constant = terminal | 0.0475 | 0.909 | 0.0838 | 0.231 | –
in vitro model: valerate, time point: constant (~7 days, model-specific) | 0.0622 | 0.889 | 0.0114 | -0.0551 | –
in vitro model: valerate, time point: terminal (~4-5 doublings, model-specific) | 0.0314 | 0.936 | 0.0132 | 0.133 | -0.823

CC[C@@H](CO)NCCN[C@@H](CC)CO [ethambutol] + COc1c(N2C[C@@H]3CCCN[C@@H]3C2)c(F)cc2c(=O)c(C(=O)O)cn(C3CC3)c12 [moxifloxacin] + CO[C@H]1/C=C/O[C@@]2(C)Oc3c(C)c(O)c4c(O)c(c(/C=N/N5CCN(C6CCCC6)CC5)c(O)c4c3C2=O)NC(=O)/C(C)=C\C=C\[C@H](C)[C@H](O)[C@@H](C)[C@@H](O)[C@@H](C)[C@H](OC(C)=O)[C@@H]1C [rifapentine]
Conditions | AUC25, [3] | Einf, [2] | GRinf, [5] | total FIC50, [4] | total FIC90, [1]
in vitro model: acidic pH 5.7, time point: constant (~7 days, model-specific) | 0.071 | 0.869 | 0.0546 | 0.231 | –
in vitro model: acidic pH 5.7, time point: terminal (~4-5 doublings, model-specific) | 0.0263 | 0.959 | -0.0323 | 0.724 | 0.104
in vitro model: intracellular J774, time point: constant = terminal | – | 0.975 | -0.351 | – | -1.53

Conditions | AUC25, [3] | Einf, [2] | GRinf, [5] | total FIC50, [4] | total FIC90, [1]
in vitro model: butyrate, time point: constant (~7 days, model-specific) | 0.0619 | 0.916 | 0.00267 | 0.508 | –
in vitro model: butyrate, time point: terminal (~4-5 doublings, model-specific) | 0.0506 | 0.961 | -0.00309 | 0.467 | -0.223
in vitro model: cholesterol 0.05 mM, time point: constant (~7 days, model-specific) | 0.104 | 0.635 | -0.31 | 0.788 | –
in vitro model: cholesterol 0.05 mM, time point: terminal (~4-5 doublings, model-specific) | 0.0642 | 0.834 | 0.155 | 1.57 | –
in vitro model: cholesterol-high 0.2 mM, time point: constant (~7 days, model-specific) | 0.0293 | 0.932 | -0.315 | 1.07 | –
in vitro model: cholesterol-high 0.2 mM, time point: terminal (~4-5 doublings, model-specific) | 0.0405 | 1 | -0.787 | 1.22 | 0.977
in vitro model: dormancy (butyrate + nitrate, low O2), time point: constant (~7 days, model-specific) | 0.0738 | 0.842 | 0.339 | 0.142 | –
in vitro model: dormancy (butyrate + nitrate, low O2), time point: terminal (~4-5 doublings, model-specific) | 0.116 | 0.993 | -0.177 | 0.309 | 0.994
in vitro model: standard 7H9 glycerol, time point: constant = terminal | 0.044 | 0.906 | 0.0179 | 0.47 | 0.148
in vitro model: valerate, time point: constant (~7 days, model-specific) | 0.0523 | 0.893 | -0.0774 | 0.833 | –
in vitro model: valerate, time point: terminal (~4-5 doublings, model-specific) | 0.0364 | 0.942 | -0.0136 | 0.843 | -0.33

CC[C@@H](CO)NCCN[C@@H](CC)CO [ethambutol] + COc1c(N2C[C@@H]3CCCN[C@@H]3C2)c(F)cc2c(=O)c(C(=O)O)cn(C3CC3)c12 [moxifloxacin] + CO[C@H]1/C=C/O[C@@]2(C)Oc3c(C)c(O)c4c(O)c(c(/C=N/N5CCN(C)CC5)c(O)c4c3C2=O)NC(=O)/C(C)=C\C=C\[C@H](C)[C@H](O)[C@@H](C)[C@@H](O)[C@@H](C)[C@H](OC(C)=O)[C@@H]1C [rifampicin]
Conditions | AUC25, [3] | Einf, [2] | GRinf, [5] | total FIC50, [4] | total FIC90, [1]
in vitro model: acidic pH 5.7, time point: constant (~7 days, model-specific) | 0.0728 | 0.842 | 0.00792 | 0.27 | –
in vitro model: acidic pH 5.7, time point: terminal (~4-5 doublings, model-specific) | 0.033 | 0.969 | -0.0608 | 0.591 | -0.139
in vitro model: intracellular J774, time point: constant = terminal | – | 0.965 | -0.353 | – | -1.82

Conditions | AUC25, [3] | Einf, [2] | GRinf, [5] | total FIC50, [4] | total FIC90, [1]
in vitro model: butyrate, time point: constant (~7 days, model-specific) | 0.0797 | 0.924 | -0.0218 | 0.419 | –
in vitro model: butyrate, time point: terminal (~4-5 doublings, model-specific) | 0.0647 | 0.966 | -0.0188 | 0.334 | -0.296
in vitro model: cholesterol 0.05 mM, time point: constant (~7 days, model-specific) | 0.104 | 0.602 | 0.0718 | 0.0825 | –
in vitro model: cholesterol 0.05 mM, time point: terminal (~4-5 doublings, model-specific) | 0.082 | 0.876 | 0.198 | 0.896 | –
in vitro model: cholesterol-high 0.2 mM, time point: constant (~7 days, model-specific) | 0.0425 | 0.937 | -0.354 | 1.01 | –
in vitro model: cholesterol-high 0.2 mM, time point: terminal (~4-5 doublings, model-specific) | 0.0582 | 1 | -0.753 | 1.13 | 1.05
in vitro model: dormancy (butyrate + nitrate, low O2), time point: constant (~7 days, model-specific) | 0.0959 | 0.838 | 0.346 | -0.35 | –
in vitro model: dormancy (butyrate + nitrate, low O2), time point: terminal (~4-5 doublings, model-specific) | 0.0588 | 0.985 | -0.0843 | 0.268 | -0.495
in vitro model: standard 7H9 glycerol, time point: constant = terminal | 0.0299 | 0.861 | 0.231 | 0.166 | –
in vitro model: valerate, time point: constant (~7 days, model-specific) | 0.0379 | 0.867 | 0.0142 | 0.576 | –
in vitro model: valerate, time point: terminal (~4-5 doublings, model-specific) | 0.0266 | 0.93 | 0.0403 | 0.645 | -0.611
